# Experimental data as given in patent US10196363B2, “Dihydropyrimidin-2-one compounds and medical use thereof” (JAPAN TOBACCO INC., priority 2014, dated 2019).
# Tests used:
# human RORγ = target: T1, human RORγ (Homo sapiens, UniProt P51449); assay: In vitro assay of inhibitory effect against RORγ transcriptional activity (GAL4-hRORγ LBD luciferase reporter gene assay in CHO cells); assay type: cell-based; details: for EC50: GAL4-hRORγ LBD luciferase reporter, CHO cells, read-out: LUC EC50 hRORγ
# T1 construct: human RORγ, from Ser253 to Lys518; expressed in transfected cells; host or cells: CHO cells (Chinese hamster ovary), transient co-transfection with pG5-Luc
# T1 sequence (P51449 253-518): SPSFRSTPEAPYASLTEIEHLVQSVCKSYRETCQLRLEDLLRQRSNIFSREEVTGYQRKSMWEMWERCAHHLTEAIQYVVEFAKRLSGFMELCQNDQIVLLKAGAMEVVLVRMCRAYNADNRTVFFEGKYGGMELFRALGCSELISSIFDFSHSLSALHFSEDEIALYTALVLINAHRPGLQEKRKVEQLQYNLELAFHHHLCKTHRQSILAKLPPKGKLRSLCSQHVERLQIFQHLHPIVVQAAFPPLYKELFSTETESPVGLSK
# Method in brief: (§1)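 Transcriptional activity of human or mouse RORγ LBD, tethered to the GAL4 DNA-binding domain, is monitored by a GAL4-dependent firefly luciferase reporter in transiently transfected CHO cells. Test articles are incubated for 2 days; values are %-of-control or fitted EC50.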
# mouse RORγ = target: T2, mouse RORγ (Mus musculus, UniProt P51450); assay: In vitro assay of inhibitory effect against RORγ transcriptional activity (GAL4-mRORγ LBD luciferase reporter gene assay in CHO cells); assay type: cell-based; details: GAL4-mRORγ LBD luciferase reporter, CHO cells; read-out: LUC EC50 mRORγ
# T2 construct: mouse RORγ, from Ile251 to Lys516; expressed in transfected cells; host or cells: CHO cells (Chinese hamster ovary), transient co-transfection with pG5-Luc
# T2 sequence (P51450 251-516): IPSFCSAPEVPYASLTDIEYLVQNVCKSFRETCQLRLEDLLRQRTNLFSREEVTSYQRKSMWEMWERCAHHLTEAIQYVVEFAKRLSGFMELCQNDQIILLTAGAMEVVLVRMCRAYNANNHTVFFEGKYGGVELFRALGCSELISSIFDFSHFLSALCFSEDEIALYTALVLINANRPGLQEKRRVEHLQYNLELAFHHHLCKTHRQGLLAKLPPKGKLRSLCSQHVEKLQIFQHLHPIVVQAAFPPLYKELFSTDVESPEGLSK
# Method in brief: as §1
EC50 (human RORγ),EC50 (mouse RORγ),"hRORγ luciferase activity, %-of-control (human RORγ; value in parentheses beside the EC50 bound, vehicle-control 0.2% DMSO alone = 100%)",SMILES
22 nM,18 nM,–,CC(C)C1=CN(CCC(=O)O)C(=O)N[C@@]1(C)c1ccc(C2CC(C)(C)C2)c(Cl)c1 [Example 298]
27 nM,10 nM,–,CC(C)C1=CN(CCC(=O)O)C(=O)N[C@@]1(C)c1ccc(CCC2(F)CCCC2)c(Cl)c1 [Example 301]
28 nM,30 nM,–,CC(C)C1=CN(CCC(=O)O)C(=O)N[C@@]1(C)c1ccc([C@H]2C[C@@H](C(C)(C)C)C2)c(Cl)c1 [Example 302]
1400 nM,1310 nM,–,CC(C)(C)CCc1ccc([C@]2(C)NC(=O)N(CCC(=O)O)C=C2CCS(C)(=O)=O)cc1Cl [Example 303]
21 nM,19 nM,–,COC(C)CC1=CN(CCC(=O)O)C(=O)N[C@@]1(C)c1ccc([C@H]2C[C@@H](C(C)(C)C)C2)c(Cl)c1 (some centres unmarked) [Example 304]
> 3200 nM,71 nM,(63%),CC(C)C1=CN(CCC(=O)O)C(=O)N[C@@]1(C)c1ccc([C@H]2C[C@@H](CC(C)(C)C)C2)c(Cl)c1 [Example 309]
260 nM,366 nM,–,CC(C)(C)CCc1ccc([C@]2(C)NC(=O)N(c3ccc(C(=O)O)cc3)C=C2CCCOC(C)(C)C)cc1Cl [Example 313]
38 nM,32 nM,–,CC(C)C1=CN(C23CCC(C(=O)O)(C2)C3)C(=O)N[C@@]1(C)c1ccc(CCC(C)(C)C)c(C(F)(F)F)c1 [Example 314]
13 nM,19 nM,–,COCCC1=CN(c2ccc(C(=O)O)cc2)C(=O)N[C@@]1(C)c1ccc([C@H]2C[C@@H](C(C)(C)C)C2)c(Cl)c1 [Example 315]
18 nM,19 nM,–,CC(C)(C)CCc1ccc([C@]2(C)NC(=O)N(C34CC(C(=O)O)(C3)C4)C=C2C2CC(F)(F)C2)cc1Cl [Example 316]
40 nM,24 nM,–,CC(C)C1=CN(CCC(=O)O)C(=O)N[C@@]1(C)c1ccc(C#CC(C)(C)C)c(Cl)c1 [Example 317]
17 nM,14 nM,–,COCCC1=CN(c2ccc(C(=O)O)cc2)C(=O)N[C@@]1(C)c1ccc([C@H]2C[C@@H](C(C)C)C2)c(Cl)c1 [Example 318]
13 nM,14 nM,–,CC(C)(C)CCc1ccc([C@]2(C)NC(=O)N(CCC(=O)O)C=C2C2CC(F)(F)C2)cc1Cl [Example 319]
23 nM,27 nM,–,CC(C)(C)CCc1ccc([C@]2(C)NC(=O)N(c3ccc(C(=O)O)cn3)C=C2C2CC(F)(F)C2)cc1Cl [Example 320]
60 nM,48 nM,–,CC1(C)CC=C(c2ccc([C@]3(C)NC(=O)N(CCC(=O)O)C=C3C3CC3)cc2Cl)CC1 [Example 321]
21 nM,19 nM,–,CC(C)C1=CN(C23CC(C(=O)O)(C2)C3)C(=O)N[C@@]1(C)c1ccc(CCC(C)(C)C)c(C(F)(F)F)c1 [Example 322]
51 nM,23 nM,–,COCCC1=CN(c2ccc(C(=O)O)cc2)C(=O)N[C@@]1(C)c1ccc(CCC(C)(C)C)c(C(F)(F)F)c1 [Example 323]
47 nM,36 nM,–,COCCC1=CN(C23CCC(C(=O)O)(C2)C3)C(=O)N[C@@]1(C)c1ccc(CCC(C)(C)C)c(C(F)(F)F)c1 [Example 324]
174 nM,60 nM,–,COCCC1=CN([C@H]2CC[C@H](C(=O)O)CC2)C(=O)N[C@@]1(C)c1ccc(CCC(C)(C)C)c(C(F)(F)F)c1 [Example 325]
58 nM,40 nM,–,CC(C)C1=CN(CCC(=O)O)C(=O)N[C@@]1(C)c1ccc(C2=CCC(F)(F)CC2)c(Cl)c1 [Example 327]
35 nM,19 nM,–,CC(C)C1=CN(CCC(=O)O)C(=O)N[C@@]1(C)c1ccc(C2CCC(F)(F)CC2)c(Cl)c1 [Example 328]
74 nM,50 nM,–,CC(C)[C@H]1C[C@@H](c2ccc([C@]3(C)NC(=O)N([C@H]4C[C@H](C(=O)O)C4)C=C3C3CC(F)(F)C3)cc2Cl)C1 [Example 329]
19 nM,14 nM,–,COCCC1=CN(C23CCC(C(=O)O)(C2)C3)C(=O)N[C@@]1(C)c1ccc([C@H]2C[C@@H](C(C)C)C2)c(Cl)c1 [Example 330]
14 nM,8 nM,–,COCCC1=CN(CCC(=O)O)C(=O)N[C@@]1(C)c1ccc(C2=CCC(C)(C)CC2)c(Cl)c1 [Example 331]

EC50 (human RORγ),EC50 (mouse RORγ),"hRORγ luciferase activity, %-of-control (human RORγ; value in parentheses beside the EC50 bound, vehicle-control 0.2% DMSO alone = 100%)",SMILES
12 nM,13 nM,–,COCCC1=CN(c2ccc(C(=O)O)cc2)C(=O)N[C@@]1(C)c1ccc(C2=CCC(C)(C)CC2)c(Cl)c1 [Example 332]
23 nM,13 nM,–,COCCC1=CN(c2ccc(C(=O)O)c(OC)c2)C(=O)N[C@@]1(C)c1ccc(C2=CCC(C)(C)CC2)c(Cl)c1 [Example 333]
22 nM,14 nM,–,COCCC1=CN(c2ccc(C(=O)O)cn2)C(=O)N[C@@]1(C)c1ccc(C2=CCC(C)(C)CC2)c(Cl)c1 [Example 334]
26 nM,11 nM,–,COCCC1=CN(CCC(=O)O)C(=O)N[C@@]1(C)c1ccc(CC2CCCCC2)c(Cl)c1 [Example 335]
10 nM,7 nM,–,COCCC1=CN(c2ccc(C(=O)O)cc2)C(=O)N[C@@]1(C)c1ccc(CC2CCCCC2)c(Cl)c1 [Example 336]
22 nM,14 nM,–,COCCC1=CN(c2ccc(C(=O)O)c(OC)c2)C(=O)N[C@@]1(C)c1ccc(CC2CCCCC2)c(Cl)c1 [Example 337]
13 nM,12 nM,–,COCCC1=CN(c2ccc(C(=O)O)cn2)C(=O)N[C@@]1(C)c1ccc(CC2CCCCC2)c(Cl)c1 [Example 338]
17 nM,15 nM,–,CC(C)(C)C1=CN(CCC(=O)O)C(=O)N[C@@]1(C)c1ccc(CC2CCCCC2)c(Cl)c1 [Example 339]
123 nM,43 nM,–,COCCC1=CN(C23CC(C(=O)O)(C2)C3)C(=O)N[C@@]1(C)c1ccc(CCC(C)(C)C)c(C(F)(F)F)c1 [Example 340]
67 nM,32 nM,–,CC(C)(C)CCc1ccc([C@]2(C)NC(=O)N(C34CC(C(=O)O)(C3)C4)C=C2C2CC(F)(F)C2)cc1C(F)(F)F [Example 341]
43 nM,28 nM,–,CC(C)(C)CCc1ccc([C@]2(C)NC(=O)N(c3ccc(C(=O)O)cc3)C=C2C2CC(F)(F)C2)cc1C(F)(F)F [Example 342]
38 nM,19 nM,–,CC(C)(C)CCc1ccc([C@]2(C)NC(=O)N(CCC(=O)O)C=C2C2CC(F)(F)C2)cc1C(F)(F)F [Example 343]
42 nM,23 nM,–,COc1cc(N2C=C(C(C)C)[C@](C)(c3ccc(CCC(C)(C)C)c(C(F)(F)F)c3)NC2=O)ccc1C(=O)O [Example 345]
26 nM,18 nM,–,COc1cc(N2C=C(C3CC(F)(F)C3)[C@](C)(c3ccc(CCC(C)(C)C)c(Cl)c3)NC2=O)ccc1C(=O)O [Example 346]
109 nM,35 nM,–,C[C@@]1(c2ccc(CC3CCCCC3)c(Cl)c2)NC(=O)N(CCC(=O)O)C=C1C1CC1 [Example 347]
46 nM,39 nM,–,CC(C)CCOc1ccc([C@]2(C)NC(=O)N(c3ccc(C(=O)O)cc3)C=C2C2CC(F)(F)C2)cc1Cl [Example 348]
63 nM,45 nM,–,CC(C)CCOc1ccc([C@]2(C)NC(=O)N(C34CC(C(=O)O)(C3)C4)C=C2C2CC(F)(F)C2)cc1Cl [Example 349]
109 nM,52 nM,–,C[C@@]1(c2ccc(OCCC3CC3)c(Cl)c2)NC(=O)N(c2ccc(C(=O)O)cc2)C=C1C1CC(F)(F)C1 [Example 350]
59 nM,45 nM,–,CC(C)(C)COc1ccc([C@]2(C)NC(=O)N(c3ccc(C(=O)O)cc3)C=C2C2CC(F)(F)C2)cc1Cl [Example 353]
239 nM,144 nM,–,C[C@@]1(c2ccc(OCCC3CC3)c(Cl)c2)NC(=O)N(C23CC(C(=O)O)(C2)C3)C=C1C1CC(F)(F)C1 [Example 354]
113 nM,52 nM,–,CC(C)(C)COc1ccc([C@]2(C)NC(=O)N(C34CC(C(=O)O)(C3)C4)C=C2C2CC(F)(F)C2)cc1Cl [Example 355]
21 nM,15 nM,–,CC(C)C1=CN(c2ccc(C(=O)O)cc2)C(=O)N[C@@]1(C)c1ccc(CCC(C)(C)C)c(F)c1 [Example 356]
34 nM,29 nM,–,C[C@@]1(c2ccc(OCCC3CCC3)c(Cl)c2)NC(=O)N(C23CC(C(=O)O)(C2)C3)C=C1C1CC(F)(F)C1 [Example 357]
